Results reported in publication PMC8500839, “Structures of outer-arm dynein array on microtubule doublet reveal a motor coordination mechanism” (Nature Structural & Molecular Biology, 2021).

B2: outer-arm dynein intermediate chain IC2 (natural protein, T. thermophila, UniProt I7M008 1-667, looked up)
chain: MPPKQTKVVASRKTVMPISRAGRAQIRRKDSNTQNNMNDQGMEDEEIDQQREGMKNQYEQLTAQELNEDMPSKMLEPKNPQAPKNITVYDYYTRKFKTDELVDQMIVHFSMDGDYIWKESNEYKTQEEIRDTKKALIKEAMRKQESEEPGANHDEEAIKQTLRNKFNYNTRECQTINPSIRERGVSTEPPPSDTICGNITQWEIFDAYYAEIMKDHQIENKKKKEVDQDKKQDQSMYSTSFKRCCKIMERMVVQNDQEDKYHDYRYYWSQGDNLEAGKNEGHLLPIWRFSNEKQRKKNVTSICWNPLYPDLFAVSLGSYDFTKQRMGLICLYSLKNTTHPEYAFNCEAGVMCLDFHPKSAALLAVGLYDGTVLVYDIRNKHKKPIYQSTVRNQKHTDPVWQVKWNPDTSKNYNFYSISSDGRVMNWILMKNKLEPEEVILLRLVGKNEEESTLIGLACGLCFDFNKFEPHIFLVGTEEGKIHKCSRAYSGQYQETYNGHLLAVYKVKWNNFHPRTFISASADWTVRIWDSKYTSQIICFDLSMMVVDAVWAPYSSTVFACATMDKVQVYDLNVDKLNKLAEQKIVKQPKLTNLSFNYKDPILLVGDSHGGVTLVKLSPNLCKSGPEIKQTEDKKAMEEFKNVKIEDYEREKMENLLAVVSKWEREDA
notes: outer-arm dynein intermediate chain 2, T. thermophila, native subunit; source: purified from T. thermophila cilia as a subunit of native OAD (high salt extraction, sucrose gradient, ion exchange)

How the values were obtained:
[1] = target: T1, γ-HC (γ-motor domain) of T. thermophila OAD (Tetrahymena thermophila, UniProt I7M6H4); experiment: cryo-EM structure of OAD-MTD array; format: binding; settings: Mg2+, no nucleotide added (apo state, co-purified)
T1 construct: gene TTHERM_00486600; from cilia
T1 sequence (I7M6H4 1-4168): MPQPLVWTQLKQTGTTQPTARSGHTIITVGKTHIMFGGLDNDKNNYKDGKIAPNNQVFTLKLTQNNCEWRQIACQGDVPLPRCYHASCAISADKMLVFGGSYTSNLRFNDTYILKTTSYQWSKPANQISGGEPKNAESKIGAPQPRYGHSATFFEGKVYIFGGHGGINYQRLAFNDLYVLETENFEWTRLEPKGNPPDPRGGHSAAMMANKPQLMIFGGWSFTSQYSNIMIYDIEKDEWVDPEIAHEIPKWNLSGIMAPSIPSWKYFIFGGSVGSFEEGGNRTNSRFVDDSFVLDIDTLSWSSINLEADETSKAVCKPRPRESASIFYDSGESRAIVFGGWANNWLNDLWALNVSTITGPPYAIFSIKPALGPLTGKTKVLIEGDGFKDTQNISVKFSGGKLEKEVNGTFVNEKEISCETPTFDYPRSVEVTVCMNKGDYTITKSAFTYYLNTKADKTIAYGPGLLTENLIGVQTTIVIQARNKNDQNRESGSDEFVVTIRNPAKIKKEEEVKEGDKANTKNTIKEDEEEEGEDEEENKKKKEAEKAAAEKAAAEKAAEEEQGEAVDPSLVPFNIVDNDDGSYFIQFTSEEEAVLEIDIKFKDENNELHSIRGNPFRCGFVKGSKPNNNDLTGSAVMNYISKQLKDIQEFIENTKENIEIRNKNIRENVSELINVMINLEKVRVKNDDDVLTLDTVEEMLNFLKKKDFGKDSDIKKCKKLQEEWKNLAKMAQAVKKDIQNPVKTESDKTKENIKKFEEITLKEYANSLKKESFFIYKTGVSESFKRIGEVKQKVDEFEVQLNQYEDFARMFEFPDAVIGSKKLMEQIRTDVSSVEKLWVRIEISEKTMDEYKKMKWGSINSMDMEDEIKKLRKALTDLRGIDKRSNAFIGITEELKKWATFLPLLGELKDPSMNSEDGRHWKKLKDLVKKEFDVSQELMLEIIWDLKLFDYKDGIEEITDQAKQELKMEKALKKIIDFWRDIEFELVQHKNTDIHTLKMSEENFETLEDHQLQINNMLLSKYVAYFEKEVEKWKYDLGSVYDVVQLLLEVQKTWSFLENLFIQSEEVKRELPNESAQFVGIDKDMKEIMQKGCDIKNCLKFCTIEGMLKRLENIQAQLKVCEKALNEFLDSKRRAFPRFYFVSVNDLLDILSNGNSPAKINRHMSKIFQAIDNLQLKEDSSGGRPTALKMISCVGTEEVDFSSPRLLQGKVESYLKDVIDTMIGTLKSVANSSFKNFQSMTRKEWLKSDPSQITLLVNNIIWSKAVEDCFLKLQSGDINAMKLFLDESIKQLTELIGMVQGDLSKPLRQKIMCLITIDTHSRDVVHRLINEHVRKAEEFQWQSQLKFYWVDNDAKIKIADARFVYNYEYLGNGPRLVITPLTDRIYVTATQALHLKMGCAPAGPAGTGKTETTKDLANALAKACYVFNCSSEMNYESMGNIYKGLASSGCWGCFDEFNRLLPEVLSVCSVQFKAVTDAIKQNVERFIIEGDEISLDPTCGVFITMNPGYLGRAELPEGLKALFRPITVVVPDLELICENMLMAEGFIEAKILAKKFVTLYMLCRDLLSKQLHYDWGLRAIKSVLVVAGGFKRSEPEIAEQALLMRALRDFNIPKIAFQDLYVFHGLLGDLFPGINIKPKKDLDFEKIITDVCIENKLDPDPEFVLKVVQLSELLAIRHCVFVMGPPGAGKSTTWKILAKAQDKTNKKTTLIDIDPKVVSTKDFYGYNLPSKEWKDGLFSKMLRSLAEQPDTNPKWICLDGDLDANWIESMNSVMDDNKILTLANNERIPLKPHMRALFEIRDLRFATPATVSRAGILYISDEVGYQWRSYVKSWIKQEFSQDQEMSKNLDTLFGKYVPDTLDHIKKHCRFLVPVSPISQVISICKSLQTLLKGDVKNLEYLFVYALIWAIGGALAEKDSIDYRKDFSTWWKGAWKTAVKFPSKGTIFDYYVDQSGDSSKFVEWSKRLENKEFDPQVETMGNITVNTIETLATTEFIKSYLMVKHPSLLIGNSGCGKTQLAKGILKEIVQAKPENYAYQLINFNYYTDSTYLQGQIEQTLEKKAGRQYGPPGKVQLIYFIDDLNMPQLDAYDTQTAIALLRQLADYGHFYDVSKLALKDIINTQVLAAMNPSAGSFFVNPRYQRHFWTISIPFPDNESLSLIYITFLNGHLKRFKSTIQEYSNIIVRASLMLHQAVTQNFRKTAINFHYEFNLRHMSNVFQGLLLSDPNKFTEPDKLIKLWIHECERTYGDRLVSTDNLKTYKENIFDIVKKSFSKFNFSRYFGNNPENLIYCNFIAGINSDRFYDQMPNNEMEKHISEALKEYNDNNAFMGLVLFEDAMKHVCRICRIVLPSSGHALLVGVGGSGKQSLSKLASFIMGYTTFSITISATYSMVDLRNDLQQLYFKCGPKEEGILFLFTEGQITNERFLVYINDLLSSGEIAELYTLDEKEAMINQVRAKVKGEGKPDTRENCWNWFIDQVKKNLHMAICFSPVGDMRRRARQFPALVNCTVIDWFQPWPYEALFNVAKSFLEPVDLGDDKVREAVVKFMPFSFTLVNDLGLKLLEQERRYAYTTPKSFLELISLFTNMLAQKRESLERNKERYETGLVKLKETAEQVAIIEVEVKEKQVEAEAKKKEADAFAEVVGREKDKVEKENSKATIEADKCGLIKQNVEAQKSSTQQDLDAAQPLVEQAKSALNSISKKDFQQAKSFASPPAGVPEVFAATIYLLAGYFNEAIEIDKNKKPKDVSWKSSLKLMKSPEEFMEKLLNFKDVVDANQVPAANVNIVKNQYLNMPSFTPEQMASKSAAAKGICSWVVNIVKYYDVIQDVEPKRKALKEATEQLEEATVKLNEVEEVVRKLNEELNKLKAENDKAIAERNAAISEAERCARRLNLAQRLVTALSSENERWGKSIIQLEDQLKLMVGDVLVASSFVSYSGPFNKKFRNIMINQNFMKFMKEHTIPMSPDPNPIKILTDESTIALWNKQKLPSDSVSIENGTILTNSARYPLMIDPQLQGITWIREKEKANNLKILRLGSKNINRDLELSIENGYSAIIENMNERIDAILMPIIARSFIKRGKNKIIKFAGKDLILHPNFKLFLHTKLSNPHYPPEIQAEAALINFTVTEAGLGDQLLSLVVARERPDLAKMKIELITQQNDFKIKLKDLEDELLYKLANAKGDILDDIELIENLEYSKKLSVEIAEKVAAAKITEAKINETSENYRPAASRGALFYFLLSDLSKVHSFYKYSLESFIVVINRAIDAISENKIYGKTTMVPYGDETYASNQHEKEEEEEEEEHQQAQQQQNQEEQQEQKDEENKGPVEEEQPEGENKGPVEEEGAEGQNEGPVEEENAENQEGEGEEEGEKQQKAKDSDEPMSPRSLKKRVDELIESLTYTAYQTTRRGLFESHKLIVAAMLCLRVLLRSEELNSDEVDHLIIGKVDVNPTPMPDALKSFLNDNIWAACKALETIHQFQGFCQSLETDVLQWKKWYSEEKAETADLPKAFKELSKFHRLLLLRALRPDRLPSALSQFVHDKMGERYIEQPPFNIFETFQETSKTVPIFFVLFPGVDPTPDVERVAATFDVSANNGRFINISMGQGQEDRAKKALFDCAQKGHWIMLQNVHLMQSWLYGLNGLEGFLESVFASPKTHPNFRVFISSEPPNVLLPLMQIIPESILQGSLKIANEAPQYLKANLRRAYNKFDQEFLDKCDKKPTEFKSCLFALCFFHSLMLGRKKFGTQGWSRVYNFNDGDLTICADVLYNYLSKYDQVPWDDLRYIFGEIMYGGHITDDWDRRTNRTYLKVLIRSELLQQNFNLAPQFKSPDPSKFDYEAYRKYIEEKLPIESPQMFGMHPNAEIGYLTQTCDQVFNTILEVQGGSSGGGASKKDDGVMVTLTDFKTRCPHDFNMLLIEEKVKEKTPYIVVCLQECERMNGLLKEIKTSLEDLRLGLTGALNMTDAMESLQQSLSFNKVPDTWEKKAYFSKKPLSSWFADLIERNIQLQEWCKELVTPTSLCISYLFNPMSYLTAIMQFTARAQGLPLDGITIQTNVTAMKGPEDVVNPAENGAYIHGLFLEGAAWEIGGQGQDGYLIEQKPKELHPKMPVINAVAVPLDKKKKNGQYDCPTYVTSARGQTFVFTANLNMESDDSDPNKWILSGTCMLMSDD

[2] = target: T2, β-HC (β-motor domain) of T. thermophila OAD (Tetrahymena thermophila, UniProt I7M9J2); experiment: cryo-EM structure of OAD-MTD array; format: binding; settings: Mg2+, no nucleotide added (apo state, co-purified)
T2 construct: gene TTHERM_00499300; from cilia

[3] = target: T3, α-HC (α-motor domain) of T. thermophila OAD (Tetrahymena thermophila, UniProt Q22A67); experiment: cryo-EM structure of OAD-MTD array; format: binding; settings: Mg2+, no nucleotide added (apo state, co-purified)
T3 construct: gene TTHERM_01276420; from cilia

outer-arm dynein (OAD) [4] = target: T4, outer-arm dynein (OAD) (Tetrahymena thermophila, UniProt I7M6H4+I7M9J2+Q22A67); experiment: negative-stain EM of OAD coverage on MTD; microtubule gliding assay; format: biochemical; settings: 1 mM ATP; 45 nM OAD; 20 mM HEPES pH 7.4, 100 mM KCl, 5 mM MgSO4, 1 mM DTT
T4 construct: gene TTHERM_01276420; native OAD, high-salt extract of axonemes, sucrose gradient and ion exchange; not cross-linked; with Dynein intermediate chain 2; Dynein intermediate chain 3; Dynein light chain LC7-a (LC7A homolog); Dynein light chain LC7B; Dynein light chain LC10; Dynein light chain DLC82; Dynein light chain LC8E; Dynein light chain LC8-2b; Dynein light chain LC8-3a; Dynein light chain LC8-3b; Dynein light chain Tctex-a; Dynein light chain LC2A; Dynein light chain LC4A; Dynein light chain LC3BL; Dynein light chain 1

outer-arm dynein (OAD) [5] = target: T4, outer-arm dynein (OAD); experiment: negative-stain EM count of OAD array length / coverage on MTD; format: biochemical; settings: 10 to 1,000 μM ATPγS; slowly hydrolysed; 45 nM OAD; 20 mM HEPES pH 7.4, 100 mM KCl, 5 mM MgSO4, 1 mM DTT
[6] = target: B2; experiment: cryo-EM structure; freshly purified native OAD (not cross-linked) reconstituted on MTD in 20 mM HEPES pH 7.4, 100 mM KCl, 5 mM MgSO4, 1 mM DTT, on ice 45 min; apo state, no docking complex; two classes MTBS-1 and MTBS-2; MTD lattice refined from the same data; settings: both partners purified
[7] = target: T5, outer-arm dynein intermediate chain IC3 (T. thermophila, UniProt Q23FU1 1-670); experiment: as above; settings: both partners purified
T5 construct: outer-arm dynein intermediate chain 3, T. thermophila, native subunit; source: purified from T. thermophila cilia as a subunit of native OAD (high salt extraction, sucrose gradient, ion exchange)
T5 sequence (looked up): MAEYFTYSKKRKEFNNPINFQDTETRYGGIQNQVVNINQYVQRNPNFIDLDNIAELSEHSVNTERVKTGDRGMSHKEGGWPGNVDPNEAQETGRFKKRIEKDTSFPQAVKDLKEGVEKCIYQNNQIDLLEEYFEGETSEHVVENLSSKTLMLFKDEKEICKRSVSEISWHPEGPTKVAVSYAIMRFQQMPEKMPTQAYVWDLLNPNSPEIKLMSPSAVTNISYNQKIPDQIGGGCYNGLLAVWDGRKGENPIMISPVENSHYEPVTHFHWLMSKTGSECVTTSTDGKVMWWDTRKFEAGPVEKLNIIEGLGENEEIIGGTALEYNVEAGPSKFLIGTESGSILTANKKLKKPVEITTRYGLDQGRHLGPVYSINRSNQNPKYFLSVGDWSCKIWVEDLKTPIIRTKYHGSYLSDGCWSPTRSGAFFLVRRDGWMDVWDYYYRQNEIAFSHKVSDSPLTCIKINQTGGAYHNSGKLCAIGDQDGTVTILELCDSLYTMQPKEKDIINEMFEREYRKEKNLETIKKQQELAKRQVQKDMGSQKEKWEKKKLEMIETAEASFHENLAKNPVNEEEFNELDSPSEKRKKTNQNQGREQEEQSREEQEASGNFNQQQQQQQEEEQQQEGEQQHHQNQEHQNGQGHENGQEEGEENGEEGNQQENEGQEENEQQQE

[8] = sites AAA3 and AAA4 (same state as β-HC)

For `Nc1ncnc2c1ncn2[C@@H]1O[C@H](COP(=O)(O)OP(=O)(O)O)[C@@H](O)[C@H]1O` [ADP], the “cryo-EM structure of OAD-MTD array” value [1, 8] was “Other motor domains have the same nucleotide binding states”, the “cryo-EM structure of OAD-MTD array” value ([2]; sites AAA3 and AAA4) was “ATP in β-AAA2 and ADP in β-AAA3/AAA4 were unambiguously identified from the density” and the “cryo-EM structure of OAD-MTD array” value [3, 8] was “Other motor domains have the same nucleotide binding states”.

In the case of `Nc1ncnc2c1ncn2[C@@H]1O[C@H](COP(=O)(O)OP(=O)(O)OP(=O)(O)O)[C@@H](O)[C@H]1O` [ATP], the “cryo-EM structure of OAD-MTD array” value ([1]; site AAA2 (same state as β-HC)) is reported as “Other motor domains have the same nucleotide binding states”, the “cryo-EM structure of OAD-MTD array” value ([2]; site AAA2) is reported as “ATP in β-AAA2 and ADP in β-AAA3/AAA4 were unambiguously identified from the density” and the “cryo-EM structure of OAD-MTD array” value ([3]; site AAA2 (same state as β-HC)) is reported as “Other motor domains have the same nucleotide binding states”. For the same molecule, the “negative-stain EM of OAD coverage on MTD; microtubule gliding assay” value (outer-arm dynein (OAD) [4]) was “fell off the MTDs in the presence of ATP, ADP·Vi or ATPγS”.

With `Nc1ncnc2c1ncn2[C@@H]1O[C@H](COP(=O)(O)OP(=O)(O)OP(O)(O)=S)[C@@H](O)[C@H]1O` [ATPγS] the “negative-stain EM count of OAD array length / coverage on MTD” value (outer-arm dynein (OAD) [5]) was “Using a titration of ATPγS, we were able to gradually shorten OAD arrays in vitro”.

B1: Tctex-b (LC2A) (natural protein, T. thermophila, UniProt C0HME8 1-132, looked up)
chain: MKGTYLYLNIYKRKREASLITLNYIKNRFYPSKIQKIIKELFEDRLKGVEYDPNNANQLSERLVLELREKIKRGKVPRYKIGVQVVFGEIKGQGLRIASKCLWDVQNDNYASYTYTSEKVYCTGIVFGCYFE
notes: light chain LC2A, the best hit for the Tctex-b position, T. thermophila; source: purified from T. thermophila cilia as a subunit of native OAD (high salt extraction, sucrose gradient, ion exchange)
B1: binds [6]; binds [7].

B2: binds [7].
